Assay results: ChEMBL document CHEMBL5126571, “Development of pyrazolo[3,4-d]pyrimidin-4-one scaffold as novel CDK2 inhibitors: Design, synthesis, and biological evaluation” (Bioorg Med Chem Lett, 2022)

System: MCF7
Test: Antiproliferative activity against human MCF7 cells by CCK-8 assay
Type: functional, cell-based

Row | Compound | IC50
1 | CC(C)(C)n1nc(-c2cccc(NC(=O)/C(C#N)=C/c3ccccc3)c2)c2c(=O)[nH]cnc21 | 21.7 µM
2 | COc1cc([C@@H]2c3cc4c(cc3[C@@H](O[C@@H]3O[C@@H]5CO[C@@H](C)O[C@H]5[C@H](O)[C@H]3O)[C@H]3COC(=O)[C@H]23)OCO4)cc(OC)c1O [ETOPOSIDE] | 18.8 µM

System: MCF7
Test: Antiproliferative activity against human MCF7 cells at 4 uM by CCK-8 assay
Type: functional

Row | Compound | inhibition at 4 µM
3 | CC(C)(C)n1nc(-c2cccc(NC(=O)/C(C#N)=C/c3ccccc3)c2)c2c(=O)[nH]cnc21 | 30%

Molecular target: Cyclin-dependent kinase 2 (Homo sapiens, UniProt P24941)
Test: Binding affinity to CDK2 (unknown origin)

Row | Compound | Ki
4 | CC(C)(C)n1nc(-c2cccc(NC(=O)/C(C#N)=C/c3cccc(Br)c3)c2)c2c(=O)[nH]cnc21 | 14.7 µM
5 | CC(C)(C)n1nc(-c2cccc(NC(=O)/C(C#N)=C/c3ccccc3)c2)c2c(=O)[nH]cnc21 | 2.2 µM
6 | CC(C)(C)n1nc(-c2cccc(NC(=O)/C(C#N)=C/c3cccc(Cl)c3)c2)c2c(=O)[nH]cnc21 | 3.1 µM
7 | COc1ccc(/C=C(\C#N)C(=O)Nc2cccc(-c3nn(C(C)(C)C)c4nc[nH]c(=O)c34)c2)cc1 | 9.7 µM
8 | CC(C)(C)n1nc(-c2cccc(NC(=O)/C(C#N)=C/c3ccc(F)cc3)c2)c2c(=O)[nH]cnc21 | 2.87 µM
9 | CC(C)(C)n1nc(-c2cccc(NC(=O)/C(C#N)=C/c3ccc(Br)cc3)c2)c2c(=O)[nH]cnc21 | 3.63 µM
10 | CC(C)(C)n1nc(-c2cccc(NC(=O)/C(C#N)=C/c3cccc([N+](=O)[O-])c3)c2)c2c(=O)[nH]cnc21 | 2.46 µM
11 | CC(C)(C)n1nc(-c2cccc(NC(=O)/C(C#N)=C/c3ccccc3Br)c2)c2c(=O)[nH]cnc21 | 1.31 µM
12 | CC(C)(C)n1nc(-c2cccc(NC(=O)/C(C#N)=C/c3ccccc3[N+](=O)[O-])c2)c2c(=O)[nH]cnc21 | 12.3 µM

Further lines, results first:

Row | Ki | Compound
13 | 0.52 µM | CC(C)(C)n1nc(-c2cccc(NC(=O)/C(C#N)=C/c3ccc(O)cc3)c2)c2c(=O)[nH]cnc21
14 | 6.25 µM | CC(C)(C)n1nc(-c2cccc(NC(=O)/C(C#N)=C/C=C/c3ccccc3)c2)c2c(=O)[nH]cnc21
15 | 5.59 µM | CC(C)(C)n1nc(-c2cccc(NC(=O)/C(C#N)=C/c3cccc(C(F)(F)F)c3)c2)c2c(=O)[nH]cnc21
16 | 1.4 µM | CC(C)(C)n1nc(-c2cccc(NC(=O)/C(C#N)=C/c3ccc(C(=O)O)cc3)c2)c2c(=O)[nH]cnc21
17 | 4.84 µM | Cc1cc(NS(=O)(=O)c2ccc(Nc3n[nH]c4nc[nH]c(=O)c34)cc2)no1
18 | 11.6 µM | CCCC/C=C(\C#N)C(=O)Nc1cccc(-c2nn(C(C)(C)C)c3nc[nH]c(=O)c23)c1
19 | 1.95 µM | CC(C)(C)n1nc(-c2cccc(NC(=O)/C(C#N)=C/c3ccc([N+](=O)[O-])cc3)c2)c2c(=O)[nH]cnc21
20 | 2.57 µM | CC(C)(C)/C=C(\C#N)C(=O)Nc1cccc(-c2nn(C(C)(C)C)c3nc[nH]c(=O)c23)c1
21 | 0.35 µM | CC(C)(C)n1nc(-c2cccc(NC(=O)/C(C#N)=C/c3ccccc3O)c2)c2c(=O)[nH]cnc21
22 | 1.64 µM | CC(C)(C)n1nc(-c2cccc(NC(=O)/C(C#N)=C/c3cc([N+](=O)[O-])cc([N+](=O)[O-])c3)c2)c2c(=O)[nH]cnc21
